According to patent publication US20070077283A1, “METHOD OF ENHANCING TRANSMUCOSAL DELIVERY OF THERAPEUTIC COMPOUNDS” (Nastech Pharmaceutical Company Inc., priority 2005, published 2007):

Key:
[1] = system: human-derived tracheal/bronchial epithelial cells (EpiAirway Tissue Model); experiment: Cell viability (MTT assay); format: cell-based; conditions: compared with PBS negative control (Example 5)
Procedure: Cell viability will be assessed using the MTT assay (MTT-100, MatTek kit). This kit measures the uptake and transformation of tetrazolium salt to formazan dye. Thawed and diluted MTT concentrate is prepared 1 hour prior to the end of the dosing period with the lipid by mixing 2 mL of MTT concentrate with 8 mL of MTT diluent. Each cell culture insert is washed twice with PBS containing Ca^+2 and Mg^+2 and then transferred to a new 96-well transport plate containing 100 μL of the mixed MTT solution per well. This 96-well transport plate is then incubated for three hours at 37° C. and 5% CO2. After the three hour incubation, the MTT solution is removed and the cultures are transferred to a second 96-well feeder tray containing 250 μL MTT extractant solution per well. An additional 150 μL of MTT extractan solution was added to the surface of each culture well and the samples sat at room temperature in the dark for a minimum of two hours and maximum of 24 hours. The insert membrane was then pierced with a pipet tip and the solutions in the upper and lower wells were allowed to mix. Two hundred microliters of the mixed extracted solution along with extracted blanks (negative control) was transferred to a 96-well plate for measurement with a microplate reader. The optical density (OD) of the samples was measured at 570 nm with the background subtraction at 650 nm on a plate reader. Cell viability was expressed as a percentage and calculated by dividing the OD readings for treated inserts by the OD readings for the PBS treated inserts and multiplying by 100. For the purposes of this assay, it was assumed that PBS had no effect on cell viability and therefore represented 100% cell viability.

[2] = system: human-derived tracheal/bronchial epithelial cells (EpiAirway Tissue Model); experiment: in vitro
Procedure: Normal, human-derived tracheal/bronchial epithelial cells will serve as the model cell system for assessing the lipids listed in Table 1. The cells are supplied by MatTek Corp. (Ashland, Mass.) as the EpiAirway™ Tissue Model. The cells are provided as a confluent monolayer on a Millipore Milicell-CM cell culture insert with a pore size of 0.4 μM, inner diameter of 0.8 cm and surface area of 0.6 cm^2 and comprised of transparent hydrophilic Teflon (PTFE). Upon receipt, the membranes are cultured in 1 ml basal media (phenol red-free and hydrocortisone-free Dulbecco's Modified Eagle's Media (DMEM) at 37° C./5% CO2 for 24-48 hours before use. Inserts are feed for each day of recovery.
The amount of cell death was assayed by measuring the loss of lactate dehydrogenase (LDH) from the cells using a CytoTox 96 Cytotoxicity Assay Kit (Promega Corp., Madison, Wis.). A treatment of 1% Octylphenolpoly(ethyleneglycolether)x (Triton X-100™) diluted in PBS was used as a lysis control. One percent Triton X-100™ mediated cell lysis was normalized to 100%. For basal-lateral LDH levels, triplicates of 50 μl of the basal media were loaded into a 96-well assay plate. For apical LDH levels, 150 μl of Epi-Cm was added to the apical side of each chamber and mixed by pipeting. One hundred and fifty microliters was then removed and diluted 2-fold prior to performing the LDH assay. All apical LDH assay were performed in triplicate and with 50 μl of the diluted test solution. Fresh, cell-free culture medium will be used as a blank. Total LDH levels were determined by lysing cells in a final concentration of 0.9% Triton-X100™. Fifty microliters of substrate solution was added to each well and the plates incubated for 30 minutes at room temperature in the dark. Following incubation, 50 μl of stop solution was added to each well and the plates read on an optical density plate reader at […]. Cytotoxicity was expressed as a percentage calculated by subtracting the average absorbance of the PBS control wells as the endogenously released LDH level and expressing that value relative to the average Triton-X100 control, which represents total LDH content. [formula] Osmolality
For the instant application, phosphate buffered saline (PBS) served as a negative control for both the TER assay and LDH (cytotoxicity) assay. […] TER measurements and LDH levels were taken immediately after a one hour treatment of the cultured cells with each lipid, unless specified otherwrise.
TER reduction was expressed as the percent decrease in TER value from time zero to one hour post-treatment. Thus, greater percent reduction in TER represents less electrical resistance across the epithelial cell monolayer and consequently greater epithelial cell permeation. Cytotoxicity (LDH levels) for each lipid was expressed as a percent of the LDH levels measured after Triton-X100 treatment of the cells. Triton-X100™ LDH levels were normalized to 100%.

[3] = system: human-derived tracheal/bronchial epithelial cells (EpiAirway Tissue Model); experiment: Transepithelial electrical resistance (TER) of an epithelial cell monolayer; format: cell-based; conditions: for activity at 1000 µM: Homo sapiens, Epithelial cell, 1 h, read-out: Mean % of Original TER Value
Procedure: Inserts are feed for each day of recovery. TER measurements were accomplished using the Endohm-12 Tissue Resistance Measurement Chamber connected to the EVOM Epithelial Voltohmmeter (World Precision Instruments, Sarasota, Fla.) with the electrode leads. The electrodes and a tissue culture blank insert were equilibrated for at least 20 minutes in MatTek medium with the power off prior to checking calibration. The background resistance was measured with 1.5 ml media in the Endohm tissue chamber and 300 μl media in the blank insert. The top electrode was adjusted so that it was close to, but not making contact with, the top surface of the insert membrane. Background resistance of the blank insert was about 5-20 ohms. […] TER values are a function of the surface area of the tissue. […] By this method of calculation, TER will be expressed as both Ohms*cm2 and percent original TER value. […] Several different lipid types (see Table 1) were screened to select for lipids that are capable of enhancing the permeation of a biological agent across an epithelial cell monolayer. […] A reduction in TER correlates with the ability to enhance the permeation of a molecule and biological agent across an epithelia.

[4] = system: human-derived tracheal/bronchial epithelial cells (EpiAirway Tissue Model); experiment: FITC-Dextran permeation assay across epithelial cell monolayer; format: cell-based; conditions: for Mean % FD3 Permeation: FITC-dextran 3000 (Table 4); for permeation of FD3 relative to negative controls: text summary of Table 4
Procedure: Each tissue insert was placed in an individual well containing 1 ml of MatTek basal media. On the apical surface of the inserts, 20 μl of test formulation was applied according to study design, and the samples were placed on a shaker (˜100 rpm) for 1.5 hours at 37° C. FITC-labeled dextran solution was added to inserts apically and a fluorescence measurement was taken from the basolateral media after the incubation period. Two hundred microliters of the basal media for each test formulation was transferred to a dark-wall fluorescent reading plate. Each test formulation was tested in triplicate. Fluorescent intensity was measured at 470 nM with the microplate fluorescence reader FLx800 (Bio-Tek Instruments, Inc., Winooski, Vt.). A FITC labeled dextran with a molecular weight of 3 kDA, 10 kDA, 20 kDA, 40 kDA, 70 kDA and/or 500 kDA was used to assess the ability of individual lipids to deliver a model protein across an epithelia.
Permeation is expressed as percent permeation and was calculated as follows: [formula] [formula] Terms
PBS and 0.3% Triton-X100™ served as […]. […] FD permeation was presented as the percent of FD that crossed from the apical side of the epithelial cell monolayer to the basolateral cell surface.

[5] = lipid 1000 μM, percent decrease in TER from time zero
[6] = lipid 1000 μM, lower value = greater TER reduction (Table 4)

| Compound | MTT levels (cell viability) [1] | LDH levels ([2]; human, 1 h) | Cytotoxic Effect (LDH) 1 hr. Post-treatments ([2]; human, 1 h, 1000 μM) [%] | Mean TER Reduction 1 hr. Post-treatment [3, 5] [%] | Cytotoxic Effect (LDH) 1 hr. Post-treatments ([2]; human, 1 h, 500 μM) [%] | Mean TER Reduction 1 hr. Post-treatment ([3]; lipid 500 μM) [%] | Mean % Relative Cytotoxic Effect (LDH) ([2]; human, 1 h, 1000 μM) [%] | activity at 1000 µM [3, 6] [%] | Mean % FD3 Permeation ([4]; lipid 1000 μM) [%] | Mean % Relative Cytotoxic Effect (LDH) ([2]; lipid 1000 μM (Table 4)) [%] | Mean % of Original TER Value [3, 6] [%] | further results |
| --- | --- | --- | --- | --- | --- | --- | --- | --- | --- | --- | --- | --- |
| CCCCCCCCCCCCCCCC(=O)OC[C@H](COP(=O)([O-])OCC[N+](C)(C)C)OC(=O)CCCCCCCC=O [16:0-09:0(ALDO)PC, 1-Palmitoyl-2-(9′-oxo-Nonanoyl)-sn-Glycero-3-Phosphocholine] | MTT levels comparable to that of the PBS negative control | below 30% | 10 | 81 | – | – | – | – | – | – | – | % FITC-Dextran Permeation FD3 ([4]; lipid 1000 μM (Table 5)): 0% |
| CCCCCCCCCCCCCCCC(=O)OC[C@H](COP(=O)([O-])OCC[N+](C)(C)C)OC(=O)CCCCCCCC(=O)O [16:0-09:0(COOH)PC, 1-Palmitoyl-2-Azelaoyl-sn-Glycero-3-Phosphocholine] | MTT levels comparable to that of the PBS negative control | below 30% | – | – | 9 | 92 | – | – | – | – | – | % FITC-Dextran Permeation FD3 ([4]; lipid 500 μM (Table 5)): 3% |
| CCCCCCCCCCCCCCCCCCOC[C@H](COP(=O)([O-])OCC[N+](C)(C)C)OC [18:0-1:0 Diether PC, 1-O-Octadecyl-2-O-Methyl-sn-Glycero-3-Phosphocholine] | MTT levels comparable to that of the PBS negative control | – | 50 | 99 | 26 | 89 | −1 | 111 | 0 | – | – | % FITC-Dextran Permeation FD3 ([4]; lipid 500 μM (Table 5)): 5% |
| CCCCCCCCCCCCCCCCOC[C@H](COP(=O)([O-])OCC[N+](C)(C)C)OC(=O)CCCCCCCC(=O)O [Azelaoyl PAF (C16-09:0), 1-O-Hexadecyl-2-Azelaoyl-sn-Glycero-3-Phosphocholine] | MTT levels comparable to that of the PBS negative control | below 30% | 26 | 95 | 16 | 93 | 3 | -5 | 9 | – | – | Cytotoxic Effect (LDH) 1 hr. Post-treatments ([2]; human, 1 h, 62.5 μM): 2%; Cytotoxic Effect (LDH) 1 hr. Post-treatments ([2]; human, 1 h, 125 μM): 5%; Cytotoxic Effect (LDH) 1 hr. Post-treatments ([2]; human, 1 h, 250 μM): 10%; Mean TER Reduction 1 hr. Post-treatment ([3]; lipid 62.5 μM): 41%; Mean TER Reduction 1 hr. Post-treatment ([3]; lipid 125 μM): 76%; Mean TER Reduction 1 hr. Post-treatment ([3]; lipid 250 μM): 93%; % FITC-Dextran Permeation FD3 ([4]; lipid 250 μM (Table 5)): 1%; permeation of FD3 relative to negative controls [4]: enhanced the permeation of FD3 above that of the negative controls |
| CC/C=C\C/C=C\C/C=C\C/C=C\C/C=C\CCCC(=O)O[C@H](COCCCCCCCCCCCCCCCC)COP(=O)([O-])OCC[N+](C)(C)C [C16-20:5 PC, 1-O-Hexadecyl-2-Eicosapentaenoyl-sn-Glycero-3-Phosphocholine] | – | – | – | – | – | – | – | – | 0 | −1 | 90 | – |
| CC/C=C\C/C=C\C/C=C\C/C=C\C/C=C\C/C=C\CCC(=O)O[C@H](COCCCCCCCCCCCCCCCC)COP(=O)([O-])OCC[N+](C)(C)C [C16-22:6 PC, 1-O-Hexadecyl-2-Docosahexaenoyl-sn-Glycero-3-Phosphocholine] | – | – | – | – | – | – | – | – | 0 | −1 | 97 | – |
| CCCCCCCCCCCCCCCCCCOC[C@H](COP(=O)([O-])OCC[N+](C)(C)C)OC(=O)CCC [C18-04:0 PC, 1-O-Octadecyl-2-Butyroyl-sn-Glycero-3-Phosphocholine] | – | – | – | – | – | – | −3 | 85 | 0 | – | – | – |
| CCCCCCCCCCCCCCCCOC[C@H](COP(=O)([O-])OCC[N+](C)(C)C)OC(=O)NC [C-PAF, 1-O-Hexadecyl-2-N-Methylcarbamyl-sn-Glycero-3-Phosphocholine] | – | – | – | – | – | – | – | – | 12 | 15 | 2 | Mean % Relative Cytotoxic Effect (LDH) ([2]; lipid 500 μM (Table 4)): 11%; Mean % of Original TER Value ([3]; lipid 500 μM (Table 4)): 10%; Mean % FD3 Permeation ([4]; lipid 500 μM): 11%; permeation of FD3 relative to negative controls [4]: enhanced the permeation of FD3 above that of the negative controls |
| CCCCCCCCCCCCC/C=C/[C@@H](O)[C@@H](N)CO[C@@H]1O[C@H](CO)[C@@H](O[C@@H]2O[C@H](CO)[C@H](O)[C@H](O)[C@H]2O)[C@H](O)[C@H]1O [Lactosyl(β) Sphingosine, D-Lactosyl-β1-1′-D-erythro-Sphingosine] | – | – | – | 95 | – | – | – | – | – | – | – | Cytotoxic Effect (LDH) 1 hr. Post-treatments ([2]; lipid 1000 μM, percent of Triton-X100 LDH levels): 14%; % FITC-Dextran Permeation FD10 ([4]; lipid 1000 μM): 5%; % FITC-Dextran Permeation FD40 ([4]; lipid 1000 μM): 2%; % FITC-Dextran Permeation FD3 ([4]; lipid 1000 μM (Table 5)): 8% |
